Results published in patent US9457041B2, “Controlled release nanoparticles and methods of use” (NDSU Research Foundation, priority 2014, dated 2016).

Tests used:
MIAPaCa-2 cells = test: Alamar Blue assay with a monolayer cell culture; type: cell-based; settings: Homo sapiens, MIA PaCa-2, MIAPaCa-2 monolayer, 10 μM gemcitabine or equivalent encapsulated, 72 hours
Protocol: (§1) Pancreatic-cancer cell lines PANC-1 and MIAPaCa-2 were obtained from American Type Culture Collection (Manassas, Va.). PANC-1 cells were cultured in RPMI media (without phenol red) that were supplemented with 2% antibiotics (penicillin, streptomycin) and 10% v/v fetal bovine serum. The MIAPaCa-2 cells were cultured in DMEM media that were supplemented with 2% horse serum and 2% antibiotics. All cell lines were grown at 37° C. in a humidified atmosphere containing 5% CO2.
(§2) Cytotoxicity of the encapsulated gemcitabine was measured by treating the PANC-1 and MIAPaCa-2 cells with nanovesicles. The cells were incubated (1,000 per well) in a 96-well plate after trypsinizing the flask and making a cell suspension. RPMI media (100 μL) were added to each well. Cells were allowed to grow for one doubling time. The plate was divided into three groups: control, gemcitabine treated and gemcitabine-encapsulated nanovesicles treated. Six replicates were recorded for each sample. […] The treatment was carried out for 3 days, and cell toxicity was recorded after 72 hours with the Alamar Blue assay by following the supplier's (Life Technologies) protocol. Alamar Blue solution (10 μL) was added to all the wells and incubated for 2 hours, and the absorbance was recorded at 585 nm for cytotoxicity calculation (FIG. 15).

PANC-1 cells = test: Alamar Blue assay with a monolayer cell culture; type: cell-based; settings: Homo sapiens, PANC-1 monolayer, 10 μM gemcitabine or equivalent encapsulated, 72 hours
Protocol: as §1, §2

recombinant human MMP-9 = recombinant human MMP-9 (Homo sapiens, UniProt P14780); test: CD spectroscopy of triple helicity of nanovesicle-incorporated lipopeptide; type: biochemical
Chain of recombinant human MMP-9 (P14780 94-707): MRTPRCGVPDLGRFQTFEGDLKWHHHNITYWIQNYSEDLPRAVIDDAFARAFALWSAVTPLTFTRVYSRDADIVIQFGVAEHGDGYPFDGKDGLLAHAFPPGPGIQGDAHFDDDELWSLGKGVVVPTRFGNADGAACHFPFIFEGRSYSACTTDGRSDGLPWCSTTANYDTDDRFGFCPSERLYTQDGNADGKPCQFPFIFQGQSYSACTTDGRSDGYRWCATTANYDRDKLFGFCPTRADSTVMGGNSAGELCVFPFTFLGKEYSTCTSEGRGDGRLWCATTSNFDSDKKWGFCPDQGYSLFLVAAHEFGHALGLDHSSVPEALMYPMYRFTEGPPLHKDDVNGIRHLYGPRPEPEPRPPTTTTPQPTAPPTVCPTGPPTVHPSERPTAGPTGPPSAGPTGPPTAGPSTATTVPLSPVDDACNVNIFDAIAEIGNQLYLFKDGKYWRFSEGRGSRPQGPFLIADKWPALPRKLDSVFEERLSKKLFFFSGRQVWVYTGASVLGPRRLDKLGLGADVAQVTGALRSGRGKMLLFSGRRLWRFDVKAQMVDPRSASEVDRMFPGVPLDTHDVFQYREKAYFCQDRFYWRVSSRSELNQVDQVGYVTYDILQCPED
Source text: The lipopeptide LP [CH3(CH2)16CONH-[…](GPO)4GG-COOH] was synthesized by employing microwave assisted solid phase peptide synthesizer (Liberty, CEM Corporation, Matthews, S.C.) by following the protocol previously established in our laboratory (Pompella et al., Biochem pharm 2003, 66 (8), 1499-1503). The lipopeptide was purified by reverse phase HPLC (Shimadzu Scientific Instruments) using a diphenyl semi-preparatory column (Grace Vydac, 300 Å pore diameter silica, 5 μm particle size, 10 mm×250 mm) as the stationary phase. A linear gradient (0-70%) of acetonitrile (with 0.1% trifluoroacetic acid) in water (with 0.1% trifluoroacetic acid) was used at a flow rate of 8 mL/min over 60 min. The chromatogram was recorded at 235 nm using a UV detector. After freeze drying the eluents, the peptide was characterized employing MALDI-TOF mass spectrometry with an AB 4800 MALDI TOF/TOF mass analyzer. An observed mass of 2332.3 Da in MALDI spectra confirmed the LP (calculated mass: 2332.2 Da). The collagen mimetic triple helical structure of the lipopeptide was assessed by CD spectrometry employing a Jasco J-815 CD spectrometer with a quartz cuvette of 1 mm path length. The positive peak at 222 nm and the negative peak at 198 nm confirmed the triple helical structure of collagen mimetic peptide.20 For the CD spectroscopic studies, 32 accumulations were recorded for each spectra.

| Compound | viability at 10 µM (MIAPaCa-2 cells) | viability at 10 µM (PANC-1 cells) | triple helicity of LP (CD) (recombinant human MMP-9; 2 μM recombinant human MMP-9, 60 minutes) | triple helicity of nanovesicle-incorporated LP (CD) (recombinant human MMP-9; GSH (50 μM), 1 hour) |
| --- | --- | --- | --- | --- |
| Nc1ccn([C@@H]2O[C@H](CO)[C@@H](O)C2(F)F)c(=O)n1 [gemcitabine] | 45 to 50% | 30 to 35% |  |  |
| CH3(CH2)16CONH-GPQGIAGQR(GPO)4GG-COOH [LP] |  |  | considerably reduced | unchanged |
